Experiments:
PKCδ = PKCδ (Homo sapiens, UniProt Q05655); experiment: In vitro 32P phosphorylation kinase assay with histone substrate; format: biochemical; conditions: 0.3-10 μM, pure recombinant PKCδ protein
Method: Since PK analogs are directed against PKCδ, it was first determined whether the analogs would inhibit PKCδ enzyme activity in kinase assays. The ability of lead PK analogs to inhibit purified human recombinant PKCδ enzyme activity by 32P phosphorylation kinase assay with histone as the substrate was measured. The in vitro kinase assays were performed with human recombinant PKCδ in the presence or absence of 0.3-10 μM lead PK analogs in the presence histone substrate, [^32P]-ATP and phospholipids. The extent of histone phosphorylation was determined after separation in SDS-PAGE and by phosphoimaging. IC50 was obtained using sigmoidal dose-response curve and non-linear regressional analysis using Graphpad Prism software.
In vitro kinase assays were performed with human recombinant PKCδ in the presence or absence of 0.3-10 μM lead PK analogs in the presence histone substrate, [^32P]-ATP and phospholipids. The extent of histone phosphorylation was determined after separation in SDS-PAGE and by phosphoimaging.

N27 cells = conditions: for toxicity of the analog at higher doses: 30 μM; for neuroprotection compared with rottlerin: caspase-3 activity and cytotoxic cell death; for blockage of MPP+-induced cytotoxicity: co-treated with 0.3, 1 and 3 μM
Method: (§1) At the end of the treatment, cytotoxicity was measured using the Sytox cell death assay in a 96-well fluorescence microplate reader.
A second generation of rottlerin analogs was further utilized for neuroprotection studies, as shown as PK201-203 in FIG. 2.
as §1
The analogs were tested in an N27 dopaminergic cell model for their neuroprotective properties. […] At the end of the treatment, cytotoxicity was measured using the Sytox cell death assay in a 96-well fluorescence microplate reader.
(§2) Rat mesencephalic dopaminergic clonal cells (N27) were used and maintained in RPMI 1640 complete medium supplemented with 10% Fetal Bovine Serum, 1% […] and 1% Penicillin/Streptomycin in a 37° C. incubator with 5% CO2. After 4-6 days in culture, the cells were used for the experiments.
(§3) N27 cells were exposed to MPP^+ for 24 hr in the presence or absence of PK analogs in the dose range of 1-30 μM.

[1] = system: caspase-3 activity in N27 cells; experiment: MPP+-induced caspase-3 activity assay in N27 cells; format: cell-based, rat; conditions: for inhibition of MPP+-induced caspase-3 activity: MPP+ 24 hr, dose range 1-30 μM; for blockage of MPP+-induced caspase-3 activity: co-treated with 0.3, 1, 3 and 10 μM
Method: To determine whether PK analogs are neuroprotective against MPP+-induced increases in caspase-3 and DNA fragmentation, their effects on MPP+-induced increases in caspase-3 activity and DNA fragmentation, markers of apoptotic cell death, were examined.
The second generation PK analogs were further tested to determine whether the analogs are neuroprotective against MPP+-induced apoptotic cell death. The effects on MPP+-induced increases in caspase-3 enzymatic activity were analyzed, a marker of apoptotic cell death. […] At the end of the treatment, cytotoxicity was measured using the caspase-3 assay in a 96-well fluorescence microplate reader.
The third generation PK analogs were further tested to determine whether the analogs are neuroprotective against MPP+-induced apoptotic cell death. The effects on MPP+-induced increases in caspase-3 enzymatic activity were examined, a marker of apoptotic cell death. N27 cells were exposed to 300 μM MPP+ for 24 hr in the presence or absence of three different PK compounds in the dose range of 0.3-10 μM. At the end of the treatment, cytotoxicity was measured using the caspase-3 assay in a 96-well fluorescence microplate reader.
as §2, §3

[2] = Activity of simple rottlerin analogs compared with rottlerin (test not named)
Method: Design and Synthesis of Novel Rottlerin Analogs. Since Rottlerin has proven to be a difficult target to make synthetically, analogs have been developed and tested in an attempt to localize the region of activity and improve that activity. Initially, simple analogs of Rottlerin itself, obtained from CalBioChem (La Jolla, Calif., Cat #557370), were prepared and analyzed. Two compounds gave important results, one representing a simplified methylene linkage present in the parent compound (PK103), and the other (PK203) came from a simple bromination of natural Rottlerin.

Chain of PKCδ (Q05655 whole entry): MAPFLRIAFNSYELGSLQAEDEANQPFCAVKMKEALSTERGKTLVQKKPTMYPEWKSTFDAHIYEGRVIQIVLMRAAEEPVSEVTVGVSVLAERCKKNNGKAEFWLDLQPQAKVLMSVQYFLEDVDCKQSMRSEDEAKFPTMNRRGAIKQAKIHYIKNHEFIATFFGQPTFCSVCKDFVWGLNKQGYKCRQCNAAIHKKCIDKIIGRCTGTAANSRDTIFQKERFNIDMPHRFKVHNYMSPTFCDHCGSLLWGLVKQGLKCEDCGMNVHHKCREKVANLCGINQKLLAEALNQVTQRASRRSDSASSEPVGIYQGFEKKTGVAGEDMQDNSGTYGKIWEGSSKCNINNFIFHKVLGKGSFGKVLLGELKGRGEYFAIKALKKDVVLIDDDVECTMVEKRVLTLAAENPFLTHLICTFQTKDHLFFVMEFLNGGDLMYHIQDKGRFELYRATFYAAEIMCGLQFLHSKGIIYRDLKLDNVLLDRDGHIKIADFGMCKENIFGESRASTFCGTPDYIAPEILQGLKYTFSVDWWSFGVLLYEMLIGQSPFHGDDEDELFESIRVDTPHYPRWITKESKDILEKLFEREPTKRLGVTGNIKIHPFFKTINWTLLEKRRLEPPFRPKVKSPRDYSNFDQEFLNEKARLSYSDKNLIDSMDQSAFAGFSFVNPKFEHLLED

Compound | inhibition of PKCδ kinase activity (PKCδ) | toxicity of the analog at higher doses (N27 cells) | neuroprotection compared with rottlerin (N27 cells; MPP+ 24 hr) | inhibition of MPP+-induced cytotoxic cell death (N27 cells; MPP+ 24 hr, dose range 1-30 μM) | inhibition of MPP+-induced caspase-3 activity [1] | blockage of MPP+-induced cytotoxicity (N27 cells; 300 μM MPP+ 24 hr) | blockage of MPP+-induced caspase-3 activity ([1]; 300 μM MPP+ 24 hr) | activity compared with Rottlerin [2] | relative potency against MPP+-induced cytotoxic cell death within the generation (N27 cells; 300 μM MPP+ 24 hr) | relative protection against MPP+-induced caspase-3 activity within the generation ([1]; 300 μM MPP+ 24 hr, 0.3-10 μM)
COc1cc(OC)c(C(=O)/C=C/c2ccccc2)c2c1C=CC(C)(C)O2 [PK111] | inhibited | toxic | better neuroprotection than the parent compound rottlerin | almost completely inhibited | almost completely inhibited |  |  |  |  | 
COc1cc2c(c3c1C=CC(C)(C)O3)C(=O)CC(c1ccccc1)O2 (stereo not drawn) [PK112] | inhibited | toxic | better neuroprotection than the parent compound rottlerin |  | almost completely inhibited |  |  |  |  | 
CC(=O)c1c(O)c(C)c(O)c(Cc2c(O)c3c(c(C(=O)/C=C/c4ccccc4)c2O)OC(C)(C)CC3)c1O [PK201] |  |  |  |  |  | significant blockage | dose-dependent blockage |  |  | 
CC(=O)c1c(O)c(C)c(O)c(Cc2c(O)c(C(=O)/C=C/c3ccccc3)c3c(c2O)C(Br)C(Br)C(C)(C)O3)c1O (stereo not drawn) [PK203] |  |  |  |  |  | significant blockage | dose-dependent blockage | less activity than Rottlerin |  | 
CC(=O)c1c(O)cc(O)cc1O [PK303, acytyl phloroglucinol] |  |  |  |  |  | significant blockage | significant blockage |  | more potent inhibitors than PK301 | more effectively protect
